Among the data in patent publication US7265131B2, “Isoquinolinone derivatives and their use as therapeutic agents” (Exelixis, Inc., priority 2002, dated 2007) are Ki values, retold here.

A value given as a limit tells only on which side of the number the result lay.

The target of this assay is T1, LXRβ (Homo sapiens, UniProt P55055).
T1 construct: were made by cloning the appropriate full-length cDNAs into the pBacPakhis1 vector; poly-His (pBacPakhis1) (N); made in house; host or cells: Sf9 insect cells (baculovirus), crude lysate
T1 sequence (P19793 whole entry): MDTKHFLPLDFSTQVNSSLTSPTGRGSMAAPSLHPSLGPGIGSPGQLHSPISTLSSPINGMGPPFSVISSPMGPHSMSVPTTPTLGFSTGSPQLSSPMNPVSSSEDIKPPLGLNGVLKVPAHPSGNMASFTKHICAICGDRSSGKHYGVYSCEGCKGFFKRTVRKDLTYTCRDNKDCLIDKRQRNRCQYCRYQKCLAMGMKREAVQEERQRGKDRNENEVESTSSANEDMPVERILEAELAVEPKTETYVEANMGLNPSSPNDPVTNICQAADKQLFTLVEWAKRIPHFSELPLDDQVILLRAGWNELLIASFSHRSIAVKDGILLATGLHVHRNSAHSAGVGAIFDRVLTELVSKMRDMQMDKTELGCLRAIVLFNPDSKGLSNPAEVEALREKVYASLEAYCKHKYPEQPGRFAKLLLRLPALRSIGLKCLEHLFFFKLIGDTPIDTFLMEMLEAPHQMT
T1 sequence (P55055 whole entry): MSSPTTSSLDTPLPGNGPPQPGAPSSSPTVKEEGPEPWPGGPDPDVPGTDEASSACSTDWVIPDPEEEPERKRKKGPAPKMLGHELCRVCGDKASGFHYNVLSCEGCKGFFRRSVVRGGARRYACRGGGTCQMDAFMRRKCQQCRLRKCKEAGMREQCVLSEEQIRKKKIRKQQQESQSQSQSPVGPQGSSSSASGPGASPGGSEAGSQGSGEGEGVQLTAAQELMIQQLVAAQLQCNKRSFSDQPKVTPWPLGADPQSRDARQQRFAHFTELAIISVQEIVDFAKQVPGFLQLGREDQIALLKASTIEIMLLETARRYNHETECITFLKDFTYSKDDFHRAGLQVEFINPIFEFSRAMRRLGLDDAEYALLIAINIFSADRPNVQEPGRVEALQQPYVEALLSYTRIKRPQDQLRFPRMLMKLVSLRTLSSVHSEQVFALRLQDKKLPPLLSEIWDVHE
The assay can be described thus: Scintillation proximity assay (SPA), competition with 3H-24,25-epoxycholesterol. It is filed as binding. The note with it: average Ki with respect to LXR β, read-out: Ki(b). As for the experimental part: The SPA assay measures the radioactive signal generated by the binding of ^3H-24,25-epoxycholesterol to LXRα or LXRβ. The basis of the assay is the use of SPA beads containing a scintillant, such that when binding to the receptor brings the labeled ligand into proximity with the bead, the energy from the label stimulates the scintillant to emit light. The light is measured using a standard microplate scintillation reader. The ability of a ligand to bind to a receptor can be measured by assessing the degree to which the compound can compete off a radiolabelled ligand with known affinity for the receptor.
1. Label: ^3H-24,25-epoxy-cholesterol (Amersham)
3. LXRβ lysate: Baculovirus expressed LXRβ/RXR heterodimer with RXR having a 6-HIS tag produced as a crude lysate
4. SPA beads: Ysi copper His-tag SPA beads (Amersham)
Baculovirus expression plasmids for human RXR α (accession No NM_002957), LXR a (accession No U22662), LXR β (accession No U07132) were made by cloning the appropriate full-length cDNAs into the pBacPakhis1 vector (Clontech, CA) following standard procedures. Insertion of the cDNAs into the pBAcPakhis1 vector polylinker created an in frame fusion to the cDNA to an N-terminal poly-His tag present in pBacPakhis1. Correct cloning was confirmed by restriction mapping, and/or sequencing.
Cell lysates were prepared by infecting healthy, Sf9 insect cells at a density of approximately 1.25×10^6/ml at 27° C., in a total volume of 500 mL per 1 L sized spinner flasks, cultured under standard conditions. To prepare LXRα lysate, insect cells were co-transfected with the LXR α expression cassette at an M.O.I of 0.5 to 0.8 and with the RXR expression cassette at a M.O.I. of approximately 1.6. To prepare LXRβ lysate, insect cells were co-transfected with the LXR β expression cassette at an M.O.I of approximately 1.6 and with the RXR expression cassette at a M.O.I. of approximately 1.6. In both cases cells were incubated for 48 hours at 27° C. with constant shaking prior to harvesting.
After incubation, cells were harvested by centrifugation and pelleted. Cell pellets were resuspended in two volumes of ice-cold freshly prepared extraction buffer (20 mM Tris pH 8.0, 10 mM Imidazole, 400 mM NaCl, containing one EDTA free protease inhibitor tablet (Roche Catalog No: 1836170) per 10 ml of extraction buffer).
Cells were homogenized slowly on ice using a Douncer to achieve 80-90% cell lysis. The homogenate was centrifuged in a pre-chilled rotor (Ti50 or Ti70, or equivalent) at 45,000 rpm for 30 minutes at 4° C. Aliquots of the supernatant were frozen on dry ice and stored frozen at −80° C. until quantification and quality control. Aliquots of the lysates were tested in the SPA assay to ensure lot to lot consistency, and via SDS-PAGE analysis after purification using Ni-NTA Resin (Qiagen) and adjusted for protein concentration and expression level prior to use in screening assays.
[^3H] 24,25 Epoxycholesterol (EC) solution: For a single 384-well plate (or 400 wells), 21 μL of [^3H] EC (specific activity 76.5 Ci/mmol, concentration 3.2 mCi/mL) was added to 4.4 mL of 2×SPA buffer to provide for a final concentration of 200 nM. For each additional 384-well plate, an additional 19.1 μL of [^3H] EC was added to 4.0 mL of additional 2×SPA buffer. The final concentration of [^3H] EC in the well was 50 nM.
LXRβ lysate (prepared as above) was diluted with protein lysate dilution buffer. 1400 μL of diluted LXRβ lysate was prepared per 384-well plate, ([…]) and 1120 μL of diluted LXRβ lysate was prepared for each additional 384-well plate.
SPA bead solution: For a 384-well plate (or 400 wells), 3.75 mL of 2×SPA buffer w/o EDTA, 2.25 mL of H2O, and 1.5 mL of Ysi His-tag SPA beads (vortex well before taking) were mixed together. For each additional 384-well plate, an additional 3.5 mL of 2×SPA buffer w/o EDTA, 2.1 mL of H2O, and 1.4 mL of Ysi His-tag SPA beads were mixed together. […]
One may read the Ki as the dissociation constant of the complex between target and ligand, obtained from inhibition or displacement. Regarding `Cc1ccc(Cn2c(C#CC(C)(C)O)cc3ccccc3c2=O)c(C)c1` [2-(2,4-dimethylbenzyl)-3-(3-hydroxy-3-methylbut-1-ynyl)-2H-isoquinolin-1-one], the Ki was > 500 nM.
Consider `Cc1ccc(Cn2c(-c3ccc(Oc4ccccc4)cc3)cc3ccccc3c2=O)c(C)c1` [2-(2,4-dimethylbenzyl)-3-(4-phenoxyphenyl)-2H-isoquinolin-1-one], for which the Ki fell in the range of 10 to 150 nM.
For `Cc1cccc(-c2cc3ccccc3c(=O)n2Cc2ccc(C)cc2C)c1` [2-(2,4-dimethylbenzyl)-3-m-tolyl-2H-isoquinolin-1-one] the value was 10 to 150 nM; for `Cc1ccc(Cn2c(-c3ccsc3)cc3ccccc3c2=O)c(C)c1` [2-(2,4-dimethylbenzyl)-3-thiophen-3-yl-2H-isoquinolin-1-one], 150 to 500 nM; for `Cc1cccc(-c2cc3ccccc3c(=O)n2Cc2ccccc2)c1` [2-benzyl-3-m-tolyl-2H-isoquinolin-1-one], > 500 nM.
For `O=c1c2c(Cl)cccc2cc(-c2cc(-c3cc(C(F)(F)F)cc(C(F)(F)F)c3)co2)n1Cc1ccc(F)cc1F` [3-[4-(3,5-bis-trifluoromethylphenyl)furan-2-yl]-8-chloro-2-(2,4-difluorobenzyl)-2H-isoquinolin-1-one] the value was 10 to 150 nM.
As for `Nc1ccc(-c2coc(-c3cc4cccc(Cl)c4c(=O)n3Cc3ccc(F)cc3F)c2)cc1C(F)(F)F` [3-[4-(4-amino-3-trifluoromethylphenyl)furan-2-yl]-8-chloro-2-(2,4-difluorobenzyl)-2H-isoquinolin-1-one], the inhibition constant Ki lay in the range of 10 to 150 nM.
For `O=c1c2c(Cl)cccc2cc(-c2ccc(Oc3ccccc3)cc2)n1Cc1ccc(F)cc1F` [8-chloro-2-(2,4-difluorobenzyl)-3-(4-phenoxyphenyl)-2H-isoquinolin-1-one] the value was 10 to 150 nM; for `O=c1c2c(Cl)cccc2cc(-c2ccc(Oc3cnccn3)cc2)n1Cc1ccc(F)cc1F` [8-chloro-2-(2,4-difluorobenzyl)-3-[4-(pyrazin-2-yloxy)phenyl]-2H-isoquinolin-1-one], 10 to 150 nM; for `CS(=O)(=O)c1ccc(-c2ccc(-c3cc4cccc(Cl)c4c(=O)n3Cc3ccc(F)cc3F)s2)cc1` [8-chloro-2-(2,4-difluorobenzyl)-3-[5-(4-methanesulfonylphenyl)thiophen-2-yl]-2H-isoquinolin-1-one], 10 to 150 nM.
On to `O=c1c2c(Cl)cccc2cc(-c2ccc(Oc3ccccc3)cc2)n1CC1CCCCC1` [8-chloro-2-cyclohexylmethyl-3-(4-phenoxyphenyl)-2H-isoquinolin-1-one], for which the Ki lay within 10 to 150 nM.
For `O=c1c2c(Cl)cccc2cc(-c2ccc(Oc3ccccc3)cc2)n1Cc1cccs1` [8-chloro-3-(4-phenoxyphenyl)-2-thiophen-2-ylmethyl-2H-isoquinolin-1-one] the value was 10 to 150 nM.
Take `CCOc1ccc(-c2csc(-c3cc4cccc(Cl)c4c(=O)n3Cc3ccc(F)cc3F)c2)cc1Cl` [8-chloro-3-[4-(3-chloro-4-ethoxyphenyl)thiophen-2-yl]-2-(2,4-difluorobenzyl)-2H-isoquinolin-1-one]: the Ki is 150 to 500 nM.
For `Cc1ccc(Cn2c(-c3ccc(Oc4ccccc4)cc3)cc3cccc(C)c3c2=O)cc1` [8-methyl-2-(4-methylbenzyl)-3-(4-phenoxyphenyl)-2H-isoquinolin-1-one] the value was 10 to 150 nM.
